# Biological target: programmed cell death protein 1 (PD-1) (Homo sapiens, UniProt Q15116)
# Assay: SPR
# Assay type: binding
# Sequence of programmed cell death protein 1 (PD-1) (Q15116 25-288): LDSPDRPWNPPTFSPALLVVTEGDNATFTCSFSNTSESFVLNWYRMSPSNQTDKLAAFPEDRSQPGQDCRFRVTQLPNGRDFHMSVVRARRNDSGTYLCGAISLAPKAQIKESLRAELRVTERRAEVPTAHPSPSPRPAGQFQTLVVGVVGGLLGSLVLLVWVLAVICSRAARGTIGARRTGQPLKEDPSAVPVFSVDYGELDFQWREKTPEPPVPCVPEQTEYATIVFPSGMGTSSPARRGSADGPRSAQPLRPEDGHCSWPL
compound,measurement,value
"C/C(O)=C(\C#N)C(=O)Nc1ccc(C(F)(F)F)cc1 [TER, teriflunomide]",Kd,1.47 nM

# Reference: paper PMC13002968 (Oncogenesis, 2026)
